pEC50: −log10 of the molar value. Where two headings read alike, the source gives them in different places.
Key:
[1] = test system: mouse hippocampal neuronal cell line HT22; test: Neurotoxicity and excitotoxicity assay, HT22 cells + glutamate, erastin or RSL3, MTS cell viability; type: cell-based; conditions: Mus musculus
Experimental: (§1) The excitotoxicity model used was the mouse hippocampal neuronal HT22 cells treated with glutamate [Dixon et al., Cell, 2012, 149(5), 1060-1072]. Ferroptosis and oxidative stress are both associated in this glutamate-induced cell death [Chu et al., Neural Regen. Res., 2020, 15(3), 528-536]. Phenotypic screening was also carried out with additional cell death inducers, erastin and RSL3 ((1S,3R)-Ras-selective lethal), in HT22 and SH-SY5Y (human neuroblastoma cells). Erastin and RSL3 are well described molecules, used as chemical tools for the study of ferroptosis regulation and neuronal pathologies [Lewerenz et al., Front. Neurosci., 2018, 12: 214; Reichert et al., Int. J. Mol. Sci., 2020, 21, 8765].
(§2) Mouse hippocampal neuronal cell line (HT22, ATCC) and human neuroblastoma cell line (SH-SY5Y, ATCC) were grown in Dulbecco's Modified Eagle Medium (DMEM, Gibco) supplemented with 10% fetal bovine serum (FBS, Gibco) at 37° C. under 5% CO2 atmosphere. Neurotoxicity was induced by erastin or RSL3 and excitotoxicity was induced by glutamate. Cells were seeded in 96-well plates at 5,000 and 10,000 cells/well for HT22 and SH-SY5Y cell lines, respectively. Cells were treated with 0.5-1 μM Erastin (HT22 cells) or 10 μM Erastin (SH-SY5Y cells) or 5-10 mM glutamate (HT22 cells) or 0.5 μM RSL3 (HT22 cells) or 5 μM RSL3 (SH-SY5Y cells) for 24 h in presence of increasing concentrations of inhibitors. Cells treated with DMSO only were used as controls. Cell viability was assessed by MTS assay (CellTiter 96 AQueous One Solution Cell Proliferation assay, Promega).
(§3) In FIGS. 1, 2A and 2B, an inhibitor was added to HT22 (FIG. 1: compound 6) or SH-SY5Y (FIG. 2A: compound 6; FIG. 2B: compound 25) cells in the presence or not of cell death inducers (erastin, glutamate or RSL3). […] EC50 values for compounds 1-28 were calculated from dose-response curves using Graphpad Prism software.

[2] = test system: human neuroblastoma cell line SH-SY5Y; test: Neurotoxicity assay, SH-SY5Y cells + erastin or RSL3, MTS cell viability; type: cell-based; conditions: for pEC50: Homo sapiens
Experimental: as §1, §2, §3

[3] = HT-22, HT22 cells, 0.5 μM RSL3, 24 h, MTS, read-out: EC50 HT22 RSL3
[4] = HT-22, HT22 cells, 0.5-1 μM Erastin, 24 h, MTS, read-out: EC50 HT22 Erastin
[5] = HT-22, HT22 cells, 5-10 mM glutamate, 24 h, MTS, read-out: EC50 HT22 Glutamate
[6] = SH-SY5Y cells, 5 μM RSL3, 24 h, MTS, read-out: EC50 SH-SY5Y RSL3
[7] = SH-SY5Y cells, 10 μM Erastin, 24 h, MTS, read-out: EC50 SH-SY5Y Erastin
[8] = HT-22, 24 h, read-out: EC50 HT22 Erastin
[9] = HT-22, 24 h, read-out: EC50 HT22 RSL3
[10] = SH-SY5Y, 24 h, read-out: EC50 SH-SY5Y RSL3

SMILES | pEC50 [1, 3] | pEC50 [1, 4] | pEC50 [1, 5] | pEC50 [2, 6] | pEC50 [2, 7] | pEC50 [1, 8] | pEC50 ([1]; HT-22, 24 h, read-out: EC50 HT22 Glutamate) | pEC50 [1, 9] | pEC50 ([2]; SH-SY5Y, 24 h, read-out: EC50 SH-SY5Y Erastin) | pEC50 [2, 10] | effect on cell viability without cell death inducers (potential cytotoxic effect of the molecule alone) ([2]; SH-SY5Y cells, 24 h, doses tested maximum 50 or 100 μM) | concentration reaching almost total inhibition of induced cell death ([2]; SH-SY5Y cells, in the presence of a ferroptosis inducer) [µM]
CCOc1ccc(-c2cc3c(N4CCCCC4)ccnc3[nH]2)cc1 [Compound 13, 2-(4-ethoxyphenyl)-4-(piperidin-1-yl)-1H-pyrrolo[2,3-b]pyridine] | 4.36 | 5.44 | 6.04 | 5.03 | 5.95 | – | – | – | – | – | – | –
CCOc1ccc(-c2cc3c(Nc4ccccc4)ccnc3[nH]2)cc1 [Compound 14, 2-(4-ethoxyphenyl)-N-phenyl-1H-pyrrolo[2,3-b]pyridin-4-amine] | 6.12 | 5.82 | 6.26 | – | 5.95 | – | – | – | – | – | – | –
CCOc1ccc(-c2cc3c(N4CCN(C)CC4)ccnc3[nH]2)cc1 [Compound 15, 2-(4-ethoxyphenyl)-4-(4-methylpiperazin-1-yl)-1H-pyrrolo[2,3-b]pyridine] | 5.14 | 5.81 | 6.30 | – | 5.61 | – | – | – | – | – | – | –
CCOc1ccc(-c2cc3cccnc3n2-c2ccc([N+](=O)[O-])cn2)cc1 [Compound 19, 2-(4-ethoxyphenyl)-1-(5-nitropyridin-2-yl)-1H-pyrrolo[2,3-b]pyridine] | 4.66 | 4.63 | 4.89 | 5.25 | 4.84 | – | – | – | – | – | – | –
CCOc1ccc(-c2cc3cccnc3n2CCN2CCOCC2)cc1 [Compound 20, 4-(2-(2-(4-ethoxyphenyl)-1H-pyrrolo[2,3-b]pyridin-1-yl)ethyl)morpholine] | 4.78 | 5.29 | 4.95 | 4.56 | 4.67 | – | – | – | – | – | – | –
CCOc1ccc(-c2cc3c(Cl)ccnc3n2C(=O)OC(C)(C)C)cc1 [Compound 21, tert-butyl 4-chloro-2-(4-ethoxyphenyl)-1H-pyrrolo[2,3-b]pyridine-1-carboxylate] | – | < 4.60 | < 4.60 | – | < 4.60 | – | – | – | – | – | – | –
CCOc1ccc(-c2cc3ccc(OC(C)=O)nc3n2C(C)=O)cc1 [Compound 22, 1-acetyl-2-(4-ethoxyphenyl)-1H-pyrrolo[2,3-b]pyridin-6-yl acetate] | 5.04 | 5.26 | 5.27 | 6.10 | 5.94 | – | – | – | – | – | – | –
CCOc1ccc(-c2cc3ccc[n+]([O-])c3[nH]2)cc1 [Compound 23, 2-(4-ethoxyphenyl)-1H-pyrrolo[2,3-b]pyridine-7-oxide] | 5.00 | < 4.60 | < 4.60 | 5.58 | 4.58 | – | – | – | – | – | – | –
CCOc1ccc(-c2cc3cccn(C(=O)N(C(C)C)C(C)C)c-3n2)cc1 [Compound 24, 2-(4-ethoxyphenyl)-N,N-diisopropyl-7H-pyrrolo[2,3-b]pyridine-7-carboxamide] | – | – | – | – | – | < 4.30 | < 4.30 | 4.68 | 4.96 | 5.46 | – | –
CCOc1ccc(-c2cc3cccn(C(=O)OCc4ccccc4)c-3n2)cc1 [Compound 25, benzyl 2-(4-ethoxyphenyl)-7H-pyrrolo[2,3-b]pyridine-7-carboxylate] | 4.72 | 5.47 | 5.78 | 5.28 | 5.85 | – | – | – | – | – | no effect on cell viability | 10
CCOc1ccc(-c2cc3cccn(Cc4ccccc4)c-3n2)cc1 [Compound 26, 7-benzyl-2-(4-ethoxyphenyl)-7H-pyrrolo[2,3-b]pyridine] | – | 4.90 | 6.09 | 4.47 | 5.00 | – | – | – | – | – | – | –
CCOc1ccc(-c2cc3cccn(Cc4ccc(OC)cc4)c-3n2)cc1 [Compound 27, 2-(4-ethoxyphenyl)-7-(4-methoxybenzyl)-7H-pyrrolo[2,3-b]pyridine] | 5.00 | 5.41 | 5.82 | – | 5.61 | – | – | – | – | – | – | –
CCOc1ccc(-c2cc3c(-c4ccc(C(=O)c5ccccc5)cc4)ccn(Cc4ccccc4)c-3n2)cc1 [Compound 28, (4-(7-benzyl-2-(4-ethoxyphenyl)-7H-pyrrolo[2,3-b]pyridin-4-yl)phenyl)(phenyl)methanone] | 4.76 | 4.62 | 4.83 | 4.80 | 4.50 | – | – | – | – | – | – | –
CC(C)(C)OC(=O)n1c(-c2ccc(O)cc2)cc2ccccc21 [Compound 29, tert-butyl 2-(4-hydroxyphenyl)-1H-indole-1-carboxylate] | 5.40 | 5.08 | 5.26 | 5.84 | – | – | – | – | – | – | – | –
CCOc1ccc(-c2cc3ccncc3n2OC(=O)N(CC)CC)cc1 [Compound 34, 2-(4-ethoxyphenyl)-1H-pyrrolo[2,3-c]pyridin-1-yl diethylcarbamate] | – | – | – | – | – | < 4.30 | – | 4.78 | – | 5.18 | – | –
CCOc1ccc(-c2cc3ccc(C#N)nc3[nH]2)cc1 [Compound 35, 2-(4-ethoxyphenyl)-1H-pyrrolo[2,3-b]pyridine-6-carbonitrile] | 5.27 | 4.77 | – | 5.99 | 5.23 | – | – | – | – | – | – | –
CCOc1ccc(-c2cc3ccc(N)nc3[nH]2)cc1 [Compound 36, 2-(4-ethoxyphenyl)-1H-pyrrolo[2,3-b]pyridin-6-amine] | 6.57 | 6.49 | – | 7.15 | 6.64 | – | – | – | – | – | – | –
Oc1ccc(-c2cc3ccc(Cl)nc3[nH]2)cc1 [Compound 37, 4-(6-chloro-1H-pyrrolo[2,3-b]pyridin-2-yl)phenol] | 5.04 | 4.93 | – | 5.91 | 5.15 | – | – | – | – | – | – | –
CCOc1ccc(-c2cc3ccc(OC(C)=O)nc3[nH]2)cc1 [Compound 38] | 5.59 | 5.17 | – | 6.70 | 5.79 | – | – | – | – | – | – | –
COc1ccc(-c2ccc3cc(-c4ccc(O)cc4)[nH]c3n2)cn1 [Compound 39, 4-(6-(6-methoxypyridin-3-yl)-1H-pyrrolo[2,3-b]pyridin-2-yl)phenol] | 4.79 | 4.79 | – | 5.83 | 5.23 | – | – | – | – | – | – | –
Oc1ccc(-c2cc3ccc(-c4ccc(O)nc4)nc3[nH]2)cc1 [Compound 40, 5-(2-(4-hydroxyphenyl)-1H-pyrrolo[2,3-b]pyridin-6-yl)pyridin-2-ol] | 5.30 | 4.88 | – | 6.02 | 5.30 | – | – | – | – | – | – | –
CCOc1ccc(-c2cc3ccc(-c4cn[nH]c4)nc3[nH]2)cc1 [Compound 41, 2-(4-ethoxyphenyl)-6-(1H-pyrazol-4-yl)-1H-pyrrolo[2,3-b]pyridine] | 5.19 | – | – | 5.66 | 5.43 | – | – | – | – | – | – | –
CCOc1ccc(-c2cc3ccc(Cc4ccncn4)nc3[nH]2)cc1 [Compound 42] | 5.15 | 5.09 | – | 5.74 | 5.44 | – | – | – | – | – | – | –
CCOc1ccc(-c2cc3c(Nc4ccccc4)ccnc3n2S(=O)(=O)c2ccccc2)cc1 [Compound 43, 2-(4-ethoxyphenyl)-N-phenyl-1-(phenylsulfonyl)-1H-pyrrolo[2,3-b]pyridin-4-amine] | 5.63 | 6.28 | – | 5.87 | 5.79 | – | – | – | – | – | – | –
CCOc1ccc(-c2cc3c(N(C)c4ccccc4)ccnc3[nH]2)cc1 [Compound 44, 2-(4-ethoxyphenyl)-N-methyl-N-phenyl-1H-pyrrolo[2,3-b]pyridin-4-amine] | 5.15 | 6.37 | – | 5.58 | 5.35 | – | – | – | – | – | – | –
